22 molecules from the supplement of paper PMC7108870 can be followed below.

Test [1] concerns HEK293sieSTAT3(wt). As to the kind of experiment: drug sensitivity score (DSS), cytotoxicity CellTox Green (DSS (dimensionless)); higher = more cytotoxic; extreme values may be limits of the assay. The following applies: 72 h; STAT3 variant: wild type. An outline of the steps:
(§1)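 HEK293 cells with a STAT3-dependent luciferase reporter, overexpressing either wild-type or mutant STAT3, were dispensed (20 μl at 100,000 cells/ml) into 384-well plates holding compounds acoustically pre-plated at 5 concentrations in 10-fold dilutions. The plates were kept for 72 hours at 37°C and 5% CO2, then CellTox Green fluorescence (485/520 nm) followed by CellTiter-Glo luminescence was read on a PHERAstar FS. Breeze was used to compute a drug sensitivity score from the dose-response curve area after normalisation to negative and positive control wells, and each value comes from one representative of two experiments.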

Test [2] relates to HEK293sieSTAT3(Y640F). The description is as above. The following applies: 72 h; STAT3 variant: Y640F (constitutively active). An outline of the steps:
as §1

The test system of test [3] is HEK293sieSTAT3(wt). As to the kind of experiment: drug sensitivity score (DSS), viability CellTiter-Glo (DSS (dimensionless)); higher = more growth inhibition; extreme values may be limits of the assay. The following applies: 72 h; STAT3 variant: wild type. An outline of the steps:
as §1
In general terms: Cellular ATP, detected with luciferase, serves as a proxy for viable cell number.

Test [4] relates to HEK293sieSTAT3(Y640F). The description is as above. The following applies: 72 h; STAT3 variant: Y640F (constitutively active). An outline of the steps:
as §1

In the case of `Oc1ccc2c(c1)CC[C@H](c1ccccc1)[C@@H]2c1ccc(OCCN2CCCC2)cc1` [Lasofoxifene] (top concentration tested 1000 nM), the drug sensitivity score in the test with HEK293sieSTAT3(wt) [1] amounted to 0; with HEK293sieSTAT3(Y640F) [2], 0; in the test with HEK293sieSTAT3(wt) [3], 3.21; with HEK293sieSTAT3(Y640F) [4], 2.47.
Turning to `Nc1cccc2c1CN(C1CCC(=O)NC1=O)C2=O` (stereo not drawn) [Lenalidomide] (top concentration tested 100000 nM), the drug sensitivity score in the test with HEK293sieSTAT3(wt) [1] amounted to 0; in the test with HEK293sieSTAT3(Y640F) [2], 0; with HEK293sieSTAT3(wt) [3], 2.72; in the test with HEK293sieSTAT3(Y640F) [4] it was 2.66.
Consider `COc1cc2nccc(Oc3ccc(NC(=O)NC4CC4)c(Cl)c3)c2cc1C(N)=O` [Lenvatinib] (top concentration tested 2500 nM), for which the drug sensitivity score worked out at 0 with HEK293sieSTAT3(wt) [1], 0 in the test on HEK293sieSTAT3(Y640F) [2], 2.2 with HEK293sieSTAT3(wt) [3] and 2.04 in the test with HEK293sieSTAT3(Y640F) [4].
For `C[C@]12O[C@H](C[C@]1(O)CO)n1c3ccccc3c3c4c(c5c6ccccc6n2c5c31)CNC4=O` [Lestaurtinib] (top concentration tested 1000 nM), the drug sensitivity score with HEK293sieSTAT3(wt) [1] is 4.55; in the test on HEK293sieSTAT3(Y640F) [2] it was 7.22; in the test on HEK293sieSTAT3(wt) [3] it was 8.27; in the test with HEK293sieSTAT3(Y640F) [4], 9.27.
The corresponding values for `N#Cc1ccc(C(c2ccc(C#N)cc2)n2cncn2)cc1` [Letrozole] (top concentration tested 10000 nM) are 0.02, 0, 0.66 and 4.14.
The corresponding values for `c1ccc([C@H]2CN3CCSC3=N2)cc1` [Levamisole] (top concentration tested 10000 nM) are 0, 0, 0 and 0.
The corresponding values for `Cc1ccc(F)c(NC(=O)Nc2ccc(-c3cccc4[nH]nc(N)c34)cc2)c1` [Linifanib] (top concentration tested 1000 nM) are 0, 0, 0 and 0.
As for `C[C@]1(O)C[C@@H](c2nc(-c3ccc4ccc(-c5ccccc5)nc4c3)c3c(N)nccn32)C1` [Linsitinib] (top concentration tested 10000 nM), the drug sensitivity score came to 0 in the test on HEK293sieSTAT3(wt) [1], 0 with HEK293sieSTAT3(Y640F) [2], 2.31 in the test on HEK293sieSTAT3(wt) [3] and 5.71 in the test with HEK293sieSTAT3(Y640F) [4].
Take `Nc1nc(OCc2cc(Br)cs2)c2[nH]cnc2n1` [Lomeguatrib] (top concentration tested 10000 nM): the drug sensitivity score with HEK293sieSTAT3(wt) [1] was determined as 0.01; with HEK293sieSTAT3(Y640F) [2] it was 0; in the test with HEK293sieSTAT3(wt) [3] it was 0.39; with HEK293sieSTAT3(Y640F) [4], 2.48.
The corresponding values for `O=NN(CCCl)C(=O)NC1CCCCC1` [Lomustine] (top concentration tested 10000 nM) are 0, 0, 0 and 0.
The corresponding values for `NC(=O)N1CCC(CC(=O)N2CCC([C@H]3c4ncc(Br)cc4CCc4cc(Cl)cc(Br)c43)CC2)CC1` [Lonafarnib] (top concentration tested 10000 nM) are 1.31, 0.03, 8.7 and 6.11.
`Cc1c(F)cc(C(=O)NC2CC2)cc1-c1ccc(C(=O)NCC(C)(C)C)cn1` [Losmapimod] (top concentration tested 10000 nM): the drug sensitivity score came out at 0 with HEK293sieSTAT3(wt) [1], 0 in the test on HEK293sieSTAT3(Y640F) [2], 0 with HEK293sieSTAT3(wt) [3] and 0.91 with HEK293sieSTAT3(Y640F) [4].
On to `CC[C@H](C)C(=O)O[C@H]1C[C@@H](C)C=C2C=C[C@H](C)[C@H](CC[C@@H]3C[C@@H](O)CC(=O)O3)[C@H]21` [Lovastatin] (top concentration tested 10000 nM), for which the drug sensitivity score was found to be 0 in the test with HEK293sieSTAT3(wt) [1], 0 with HEK293sieSTAT3(Y640F) [2], 0.12 in the test on HEK293sieSTAT3(wt) [3] and 0 in the test on HEK293sieSTAT3(Y640F) [4].
For the molecule `CNC(=O)c1cccc2cc(Oc3ccnc4cc(OCC5(N)CC5)c(OC)cc34)ccc12` [Lucitanib] (top concentration tested 10000 nM), the drug sensitivity score in the test with HEK293sieSTAT3(wt) [1] stood at 7.65; with HEK293sieSTAT3(Y640F) [2], 0; in the test with HEK293sieSTAT3(wt) [3], 5.26; in the test on HEK293sieSTAT3(Y640F) [4] it was 1.79.
The corresponding values for `CCNC(=O)c1noc(-c2cc(C(C)C)c(O)cc2O)c1-c1ccc(CN2CCOCC2)cc1` [Luminespib] (top concentration tested 1000 nM) are 15.9, 7.6, 27.8 and 23.7.
The corresponding values for `C=CCn1c(=O)c2cnc(Nc3ccc(N4CCN(C)CC4)cc3)nc2n1-c1cccc(C(C)(C)O)n1` [MK1775] (top concentration tested 10000 nM) are 16.5, 10.6, 19.4 and 20.4.
The corresponding values for `O=C(O)CC[C@H]1CC[C@@](c2cc(F)ccc2F)(S(=O)(=O)c2ccc(Cl)cc2)CC1` [MK-0752] (top concentration tested 1000 nM) are 0, 0, 0 and 1.59.
`NC1(c2ccc(-c3nc4ccn5c(=O)[nH]nc5c4cc3-c3ccccc3)cc2)CCC1` [MK-2206] (top concentration tested 1000 nM): the drug sensitivity score stood at 0 in the test on HEK293sieSTAT3(wt) [1], 0 in the test on HEK293sieSTAT3(Y640F) [2], 8.2 in the test with HEK293sieSTAT3(wt) [3] and 3.71 with HEK293sieSTAT3(Y640F) [4].
On to `CN(C[C@@H]1COCCO1)S(=O)(=O)Nc1ccc2ccc3ncc(-c4cnn(C)c4)cc3c(=O)c2c1` [MK-2461] (top concentration tested 10000 nM), for which the drug sensitivity score with HEK293sieSTAT3(wt) [1] is 0; in the test with HEK293sieSTAT3(Y640F) [2], 0; in the test with HEK293sieSTAT3(wt) [3] it was 3.5; in the test on HEK293sieSTAT3(Y640F) [4], 3.63.
Turning to `O=C(c1cccc(Cl)c1F)N1CCN(Cc2cccc(Nc3nccs3)n2)CC1` [MK-8745] (top concentration tested 2500 nM), the drug sensitivity score turned out to be 1.16 in the test on HEK293sieSTAT3(wt) [1], 0 with HEK293sieSTAT3(Y640F) [2], 3.99 with HEK293sieSTAT3(wt) [3] and 0.11 in the test with HEK293sieSTAT3(Y640F) [4].
The corresponding values for `Cn1cc(-c2cnn3c(N)c(Br)c([C@@H]4CCCNC4)nc23)cn1` [MK-8776] (top concentration tested 2500 nM) are 3.43, 1.03, 6.83 and 5.89.
The corresponding values for `Cc1cnc(-c2ccccc2C(C)C)nc1NCc1ccc(-n2ccnn2)cc1` [ML323] (top concentration tested 10000 nM) are 0, 0, 1.14 and 2.43.
